Measured values reported in patent publication US9409880B2, “Modulators of TLR3/dsRNA complex and uses thereof” (The Regents of the University of Colorado, a body corporate, priority 2011, dated 2016).

Experiments:
TLR4 = target: T1, TLR4 (Mus musculus, UniProt Q9QUK6); test: RAW264.7 cell nitric oxide TLR selectivity assay (LPS); format: cell-based; conditions: 27 μM
T1 construct: endogenous in cells; host or cells: RAW 264.7
T1 sequence (Q9QUK6 26-835): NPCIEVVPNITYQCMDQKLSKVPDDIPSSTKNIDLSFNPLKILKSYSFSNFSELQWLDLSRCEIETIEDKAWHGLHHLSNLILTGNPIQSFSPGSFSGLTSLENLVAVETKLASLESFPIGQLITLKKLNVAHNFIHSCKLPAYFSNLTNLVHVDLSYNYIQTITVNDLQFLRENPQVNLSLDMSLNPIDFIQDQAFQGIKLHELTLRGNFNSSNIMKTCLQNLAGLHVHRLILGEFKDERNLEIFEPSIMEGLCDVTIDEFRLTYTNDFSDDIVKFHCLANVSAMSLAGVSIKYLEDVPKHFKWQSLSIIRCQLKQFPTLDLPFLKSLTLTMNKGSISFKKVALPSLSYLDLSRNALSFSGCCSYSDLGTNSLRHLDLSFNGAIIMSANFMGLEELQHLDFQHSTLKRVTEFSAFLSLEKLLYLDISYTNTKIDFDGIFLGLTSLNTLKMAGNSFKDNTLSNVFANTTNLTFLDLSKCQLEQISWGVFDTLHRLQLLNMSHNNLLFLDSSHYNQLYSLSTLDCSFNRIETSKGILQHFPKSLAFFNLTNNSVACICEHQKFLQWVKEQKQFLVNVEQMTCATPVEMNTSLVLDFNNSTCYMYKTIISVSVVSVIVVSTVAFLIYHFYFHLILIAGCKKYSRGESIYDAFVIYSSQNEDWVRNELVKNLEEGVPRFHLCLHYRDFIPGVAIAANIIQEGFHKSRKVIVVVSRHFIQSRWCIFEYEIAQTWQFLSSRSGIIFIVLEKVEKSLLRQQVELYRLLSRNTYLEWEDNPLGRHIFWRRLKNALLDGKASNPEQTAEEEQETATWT
T1 sequence (Q9JHF9 19-160 partner): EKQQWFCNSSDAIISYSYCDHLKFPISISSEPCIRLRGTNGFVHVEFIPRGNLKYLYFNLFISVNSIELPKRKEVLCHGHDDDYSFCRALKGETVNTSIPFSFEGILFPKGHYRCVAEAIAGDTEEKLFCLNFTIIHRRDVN

Cyp1A2 = target: T2, Cyp1A2 (Homo sapiens, UniProt P05177); test: Cytochrome P450 toxicity assay; format: in vitro ADME; conditions: 25 μM and 50 μM; compared to known inhibitor aNF
T2 construct: tissue Apredica (testing lab); host or cells: microsomes (subcellular fractions)
T2 sequence (P05177 1-516): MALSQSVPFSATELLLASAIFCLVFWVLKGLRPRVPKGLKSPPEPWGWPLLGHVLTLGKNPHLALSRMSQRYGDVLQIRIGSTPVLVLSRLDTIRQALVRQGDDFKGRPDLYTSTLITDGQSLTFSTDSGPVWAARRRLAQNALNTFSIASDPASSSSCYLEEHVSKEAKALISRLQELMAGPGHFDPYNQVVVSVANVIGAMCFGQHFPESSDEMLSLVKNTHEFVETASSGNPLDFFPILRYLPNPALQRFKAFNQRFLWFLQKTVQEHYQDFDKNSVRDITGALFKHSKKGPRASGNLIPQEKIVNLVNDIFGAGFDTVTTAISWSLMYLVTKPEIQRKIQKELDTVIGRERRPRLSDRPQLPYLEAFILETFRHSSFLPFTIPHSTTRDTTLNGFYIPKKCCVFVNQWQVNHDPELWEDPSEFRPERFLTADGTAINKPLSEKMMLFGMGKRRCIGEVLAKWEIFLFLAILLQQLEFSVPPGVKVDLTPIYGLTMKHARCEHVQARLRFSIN
Experimental: (§1) Test agent was incubated (two wells per condition) with microsomes at 37° C. Control incubations containing vehicle or reference inhibitors were run along side the test agents. The final assay contained test agent, probe substrates at the indicated concentration, 2 mM NADPH, 3 mM MgCl2 in 50 mM potassium phosphate buffer, pH 7.4. The final microsomal concentration was 0.5 mg/mL. The maximum solvent concentration in the final assay was ≦0.5% to minimize the inhibition of Cyps by solvent. NADPH was added last to start the assay. At the end of ten minutes incubation, the assay was stopped by the addition of acetonitrile containing internal standard, the samples were centrifuged, and the amount of probe metabolite in the supernatant was determined by LC/MS/MS. (Testing was done by Apredica, Watertown, Mass. using subcellular fractions)

Cyp2C19 = target: T3, Cyp2C19 (Homo sapiens, UniProt P33261); test: Cytochrome P450 toxicity assay; format: in vitro ADME; conditions: 25 μM and 50 μM; compared to known inhibitor ticlopidine
T3 construct: tissue Apredica (testing lab); host or cells: microsomes (subcellular fractions)
T3 sequence (P33261 whole entry): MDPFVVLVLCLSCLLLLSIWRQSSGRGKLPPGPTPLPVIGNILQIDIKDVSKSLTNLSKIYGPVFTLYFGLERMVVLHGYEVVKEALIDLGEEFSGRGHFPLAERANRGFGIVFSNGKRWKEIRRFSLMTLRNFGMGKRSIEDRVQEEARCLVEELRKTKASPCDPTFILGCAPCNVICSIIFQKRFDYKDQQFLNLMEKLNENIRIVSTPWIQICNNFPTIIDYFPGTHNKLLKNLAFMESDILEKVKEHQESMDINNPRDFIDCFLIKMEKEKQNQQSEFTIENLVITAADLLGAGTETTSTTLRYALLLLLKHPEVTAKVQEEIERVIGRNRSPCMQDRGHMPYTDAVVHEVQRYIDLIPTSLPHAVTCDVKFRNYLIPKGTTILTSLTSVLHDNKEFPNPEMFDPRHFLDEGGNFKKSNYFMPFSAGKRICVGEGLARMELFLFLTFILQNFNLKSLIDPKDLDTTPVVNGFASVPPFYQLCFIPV
Experimental: as §1

Cyp2D6 = target: T4, Cyp2D6 (Homo sapiens, UniProt P10635); test: Cytochrome P450 toxicity assay; format: in vitro ADME; conditions: 25 μM and 50 μM; compared to known inhibitor quinidine
T4 construct: tissue Apredica (testing lab); host or cells: microsomes (subcellular fractions)
T4 sequence (P10635 whole entry): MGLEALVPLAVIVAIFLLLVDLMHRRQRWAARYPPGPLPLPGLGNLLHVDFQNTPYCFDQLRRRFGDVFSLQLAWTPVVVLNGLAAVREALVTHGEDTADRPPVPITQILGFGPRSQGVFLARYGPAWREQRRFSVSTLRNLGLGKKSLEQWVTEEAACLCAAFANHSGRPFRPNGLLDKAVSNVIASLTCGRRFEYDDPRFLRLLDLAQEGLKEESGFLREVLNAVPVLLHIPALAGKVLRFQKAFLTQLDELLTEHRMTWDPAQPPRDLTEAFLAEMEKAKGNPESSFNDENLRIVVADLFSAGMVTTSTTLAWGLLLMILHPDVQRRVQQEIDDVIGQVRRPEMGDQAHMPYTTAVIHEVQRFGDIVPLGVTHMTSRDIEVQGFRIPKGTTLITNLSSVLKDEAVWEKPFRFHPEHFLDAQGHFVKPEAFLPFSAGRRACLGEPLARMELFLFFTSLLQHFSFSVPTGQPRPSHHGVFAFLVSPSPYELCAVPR
Experimental: as §1

Cyp3A4 = target: T5, Cyp3A4 (Homo sapiens, UniProt P08684); test: Cytochrome P450 toxicity assay; format: in vitro ADME; conditions: 25 μM and 50 μM; compared to known inhibitor ketoconazole
T5 construct: tissue Apredica (testing lab); host or cells: microsomes (subcellular fractions)
T5 sequence (P08684 whole entry): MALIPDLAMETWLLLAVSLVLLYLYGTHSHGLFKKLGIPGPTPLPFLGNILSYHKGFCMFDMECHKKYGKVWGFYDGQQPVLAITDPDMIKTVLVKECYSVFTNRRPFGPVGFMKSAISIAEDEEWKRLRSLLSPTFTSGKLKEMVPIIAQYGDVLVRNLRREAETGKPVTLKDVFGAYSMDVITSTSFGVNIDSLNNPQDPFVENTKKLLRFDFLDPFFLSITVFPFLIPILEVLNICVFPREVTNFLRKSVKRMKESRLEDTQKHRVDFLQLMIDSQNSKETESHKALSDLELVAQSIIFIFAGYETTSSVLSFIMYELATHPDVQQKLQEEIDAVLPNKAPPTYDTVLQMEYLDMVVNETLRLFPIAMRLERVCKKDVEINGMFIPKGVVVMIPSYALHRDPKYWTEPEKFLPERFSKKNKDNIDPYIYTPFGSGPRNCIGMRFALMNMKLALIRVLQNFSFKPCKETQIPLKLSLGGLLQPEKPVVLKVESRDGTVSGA
Experimental: as §1

RAW 264.7 cells = test: WST-1 cytotoxicity assay; format: cell-based, Mouse; conditions: WST-1 methodology; different concentrations
Experimental: This assay was conducted in a 96-well plate with 5,000 cells in 100 μL media (RPMI 1640 medium, supplemented with 10% FBS, penicillin (100 U/mL) and streptomycin ([…])) per well. Eight wells were left empty for blank controls. The plates were incubated (37° C., 5% CO2) overnight to allow the cells to attach to the wells. WST-1 proliferation reagent (Roche) was added to the cells (10 μL per well) and continued to incubate for 1-2 h at 37° C. Plates were checked visually by comparing the colour of wells with media without cells (colour remained pink) with wells contained untreated cells (colour is orange). When a clear difference could be seen by naked eye, results were read by spectrophotometer at 490 nm. Cytotoxicity (%) was determined using the following formula: Cytotoxicity (%)=(1−[Compounds (OD490)−Background (OD490)]/[Control (OD490)−Background (OD490)])×100.

representative kinases = test: Kinase profiling; format: biochemical; conditions: 10 μM
MCP-1 = test: In vivo poly IC-induced serum MCP-1 in wild-type mice; conditions: pretreatment 30 minutes prior to 100 μg poly IC i.v., serum 4 hours after
Experimental: Wild-type mice were treated with a single 100 μg of poly IC i.v. injection and the serum concentration of MCP-1 was investigated 4 hours after the treatment. […] Pretreatment with compound 4a at various concentrations 30 minutes prior to poly I:C application decreased MCP-1 production by about 50%.

[1] = test system: XMRV-induced IP-10/CXCL10 production; test: XMRV-induced IP-10 mRNA (RT-PCR) in LNCaP cells; format: cell-based, human

`O=C(N[C@H](Cc1ccccc1)C(=O)O)c1sc2cc(F)ccc2c1Cl` [Compound 4a, (R)-2-(3-chloro-6-fluorobenzo[b]thiophene-2-carboxamido)-3-phenylpropanoic acid] was tested, and the “effect on TLR4 signaling” value (TLR4) was “without significantly affecting other TLRs”, the “toxicity to Cyp1A2” value (Cyp1A2) was “low toxicity” and the “toxicity to Cyp2C19” value (Cyp2C19) was “low toxicity”. For the same compound, the “toxicity to Cyp2D6” value (Cyp2D6) was “low toxicity”, the “toxicity to Cyp3A4” value (Cyp3A4) was “low toxicity” and the “toxicity in RAW 264.7 cells” value (RAW 264.7 cells) was “did not show any significant toxicity”. The “effect on kinase activities” value (representative kinases) was “did not significantly affect activities”, the “decrease of MCP-1 production” value (MCP-1) was “about 50%” and the “XMRV-induced IP-10 production” value ([1]; 50 μM, RT-PCR of IP-10 mRNA) was “inhibits XMRV-induced IP-10 production”. The “XMRV-induced IP-10/CXCL10 production” value ([1]; 10 and 25 μM, RT-PCR) was “inhibition of XMRV-induced IP-10/CXCL10 production”.
